Assay results from the supplement of paper PMC10627819.

What was measured:
[1] = test system: S. aureus Newman; experiment: fitness (endpoint OD595 vs no drug) (fraction); higher = more growth
Procedure, shortened: (§1)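 Bacterial fitness was scored as optical density at the stationary-phase transition relative to the robust mean of no-drug control wells. Scores are capped at 1. The growth data were OD595 readings every 30 min for 14 h at 37 °C, background-subtracted against the first reading, from 384-well plates inoculated at OD595 0.01 in TSB, LB Lennox or CY.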

[2] = test system: B. subtilis 168; experiment: as above
Procedure, shortened: as §1

[3] = test system: S. pneumoniae D39V; experiment: as above
Procedure, shortened: as §1

[4] = test system: S. aureus DSM 20231; experiment: as above
Procedure, shortened: as §1

[5] = test system: S. aureus Newman; experiment: Bliss interaction score (quartile over a dose matrix) (fitness difference); higher = more antagonism (negative = synergy)
Procedure, shortened: (§2)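 Combination data were used to infer fitness under each single drug. Fitness is the OD595 at entry into stationary phase divided by the robust mean of the plate's no-drug wells, with a cap of 1. The Bliss score is the observed minus the expected product fitness, summarised by quartiles over technical, biological and donor/recipient replicates.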

[6] = test system: B. subtilis 168; experiment: as above
Procedure, shortened: as §2

[7] = test system: S. pneumoniae D39V; experiment: as above
Procedure, shortened: as §2

[8] = test system: S. aureus DSM 20231; experiment: as above
Procedure, shortened: as §2

[9] = first compound 0.039 µg/mL, partner 0.781 µg/mL, one replicate
[10] = first compound 0.039 µg/mL, partner 1.562 µg/mL, one replicate
[11] = first compound 0.039 µg/mL, partner 3.124 µg/mL, one replicate
[12] = first compound 0.078 µg/mL, partner 0.781 µg/mL
[13] = first compound 0.078 µg/mL, partner 1.562 µg/mL
[14] = first compound 0.078 µg/mL, partner 3.124 µg/mL
[15] = first compound 0.156 µg/mL, partner 0.781 µg/mL
[16] = first compound 0.156 µg/mL, partner 1.562 µg/mL
[17] = first compound 0.156 µg/mL, partner 3.124 µg/mL
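For Bliss interaction score (quartile over a dose matrix) in this document: first quartile when negative (synergy) and third quartile when positive (antagonism).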

## CO/N=C(\C(=O)N[C@@H]1C(=O)N2C(C(=O)O)=C(COC(C)=O)CS[C@H]12)c1csc(N)n1 [Cefotaxime] + C[C@@H]1O[C@@H]1P(=O)(O)O [Fosfomycin]
[1]; [9]
  fitness: 0.58
[1]; [10]
  fitness: 0.511
[1]; [11]
  fitness: 0.202
[1]; [12]
  fitness: 0.628
[1]; [13]
  fitness: 0.536
[1]; [14]
  fitness: 0.21
[1]; [15]
  fitness: 0.536
[1]; [16]
  fitness: 0.497
[1]; [17]
  fitness: 0.206
[1]; first compound 0.312 µg/mL, partner 0.781 µg/mL, one replicate
  fitness: 0.341
[1]; first compound 0.312 µg/mL, partner 1.562 µg/mL, one replicate
  fitness: 0.205
[1]; first compound 0.312 µg/mL, partner 3.124 µg/mL, one replicate
  fitness: 0.117
[1]; first compound 0.625 µg/mL, partner 0.781 µg/mL
  fitness: 0.17
[1]; first compound 0.625 µg/mL, partner 1.562 µg/mL
  fitness: 0.185
[1]; first compound 0.625 µg/mL, partner 3.124 µg/mL
  fitness: 0.084
[1]; first compound 1.25 µg/mL, partner 0.781 µg/mL
  fitness: 0.0664
[1]; first compound 1.25 µg/mL, partner 1.562 µg/mL
  fitness: 0.033
[1]; first compound 1.25 µg/mL, partner 3.124 µg/mL
  fitness: 0.0169
[1]; first compound 2.5 µg/mL, partner 0.781 µg/mL
  fitness: 0.0252
[1]; first compound 2.5 µg/mL, partner 1.562 µg/mL
  fitness: 0.0136
[1]; first compound 2.5 µg/mL, partner 3.124 µg/mL
  fitness: 0.0374
[2]; first compound 0.00775 µg/mL, partner 1.562 µg/mL, one replicate
  fitness: 0.573
[2]; first compound 0.00775 µg/mL, partner 3.124 µg/mL, one replicate
  fitness: 0.446
[2]; first compound 0.00775 µg/mL, partner 6.248 µg/mL, one replicate
  fitness: 0.274
[2]; first compound 0.0155 µg/mL, partner 1.562 µg/mL, one replicate
  fitness: 0.443
[2]; first compound 0.0155 µg/mL, partner 3.124 µg/mL, one replicate
  fitness: 0.362
[2]; first compound 0.0155 µg/mL, partner 6.248 µg/mL, one replicate
  fitness: 0.198
[2]; first compound 0.031 µg/mL, partner 1.562 µg/mL, one replicate
  fitness: 0.319
[2]; first compound 0.031 µg/mL, partner 3.124 µg/mL, one replicate
  fitness: 0.225
[2]; first compound 0.031 µg/mL, partner 6.248 µg/mL, one replicate
  fitness: 0.156
[2]; first compound 0.0625 µg/mL, partner 1.562 µg/mL, one replicate
  fitness: 0.454
[2]; first compound 0.0625 µg/mL, partner 3.124 µg/mL, one replicate
  fitness: 0.413
[2]; first compound 0.0625 µg/mL, partner 6.248 µg/mL, one replicate
  fitness: 0.34
[2]; first compound 0.125 µg/mL, partner 1.562 µg/mL, one replicate
  fitness: 0.472
[2]; first compound 0.125 µg/mL, partner 3.124 µg/mL, one replicate
  fitness: 0.389
[2]; first compound 0.125 µg/mL, partner 6.248 µg/mL, one replicate
  fitness: 0.238
[2]; first compound 0.25 µg/mL, partner 1.562 µg/mL, one replicate
  fitness: 0.367
[2]; first compound 0.25 µg/mL, partner 3.124 µg/mL, one replicate
  fitness: 0.337
[2]; first compound 0.25 µg/mL, partner 6.248 µg/mL, one replicate
  fitness: 0.186
[2]; first compound 0.5 µg/mL, partner 1.562 µg/mL
  fitness: 0.244
[2]; first compound 0.5 µg/mL, partner 3.124 µg/mL
  fitness: 0.194
[2]; first compound 0.5 µg/mL, partner 6.248 µg/mL
  fitness: 0.16
[2]; first compound 1 µg/mL, partner 1.562 µg/mL
  fitness: 0.134
[2]; first compound 1 µg/mL, partner 3.124 µg/mL
  fitness: 0.102
[2]; first compound 1 µg/mL, partner 6.248 µg/mL
  fitness: 0.0644
[2]; first compound 2 µg/mL, partner 1.562 µg/mL
  fitness: 0.13
[2]; first compound 2 µg/mL, partner 3.124 µg/mL
  fitness: 0.117
[2]; first compound 2 µg/mL, partner 6.248 µg/mL
  fitness: 0.054
[3]; first compound 0.0018 µg/mL, partner 1.25 µg/mL
  fitness: 0.958
[3]; first compound 0.0018 µg/mL, partner 2.5 µg/mL
  fitness: 0.959
[3]; first compound 0.0018 µg/mL, partner 5 µg/mL
  fitness: 0.761
[3]; first compound 0.0035 µg/mL, partner 1.25 µg/mL
  fitness: 0.962
[3]; first compound 0.0035 µg/mL, partner 2.5 µg/mL
  fitness: 0.943
[3]; first compound 0.0035 µg/mL, partner 5 µg/mL
  fitness: 0.736
[3]; first compound 0.007 µg/mL, partner 1.25 µg/mL
  fitness: 0.897
[3]; first compound 0.007 µg/mL, partner 2.5 µg/mL
  fitness: 0.778
[3]; first compound 0.007 µg/mL, partner 5 µg/mL
  fitness: 0.533
[4]; [9]
  fitness: 0.718
[4]; [10]
  fitness: 0.673
[4]; [11]
  fitness: 0.504
[4]; [12]
  fitness: 0.65
[4]; [13]
  fitness: 0.608
[4]; [14]
  fitness: 0.559
[4]; [15]
  fitness: 0.624
[4]; [16]
  fitness: 0.62
[4]; [17]
  fitness: 0.532
[4]; first compound 0.312 µg/mL, partner 0.781 µg/mL
  fitness: 0.683
[4]; first compound 0.312 µg/mL, partner 1.562 µg/mL
  fitness: 0.623
[4]; first compound 0.312 µg/mL, partner 3.124 µg/mL
  fitness: 0.518
[5]
  Bliss interaction score: 0.113
[6]
  Bliss interaction score: 0.0459
[7]
  Bliss interaction score: -0.0644
[8]
  Bliss interaction score: 0.143
